Biological target: human 11βHSD1 enzyme (Homo sapiens (Human), UniProt P28845)
Assay: biochemical
Conditions: for inhibition at 30 µM: read-out: % inhibition of human 11-βHSD
Procedure: The evaluation of compounds described herein was carried out using a baculovirus expressed N terminal 6-His tagged full length human 11βHSD1 enzyme(*1). […] Inhibitors of 11βHSD1 reduce the conversion of cortisone to cortisol, which is identified by an increase in signal, in the above assay.
Compounds to be tested were dissolved in dimethyl sulphoxide (DMSO) to 10 mM and diluted further in assay buffer containing 1% DMSO to 10 fold the final assay concentration. Diluted compounds were then plated into black 384 well plates (Matrix, Hudson N.H., USA).
The assay plates were incubated for 25 minutes at 37° C. after which time the reaction was stopped by the addition of 10 μl of 0.5 mM glycerrhetinic acid plus conjugated cortisol (XL665 or D2). 10 μl of anti-cortisol Cryptate was then added and the plates sealed and incubated for 6 hours at room temperature.

Sequence of human 11βHSD1 enzyme (P28845 whole entry): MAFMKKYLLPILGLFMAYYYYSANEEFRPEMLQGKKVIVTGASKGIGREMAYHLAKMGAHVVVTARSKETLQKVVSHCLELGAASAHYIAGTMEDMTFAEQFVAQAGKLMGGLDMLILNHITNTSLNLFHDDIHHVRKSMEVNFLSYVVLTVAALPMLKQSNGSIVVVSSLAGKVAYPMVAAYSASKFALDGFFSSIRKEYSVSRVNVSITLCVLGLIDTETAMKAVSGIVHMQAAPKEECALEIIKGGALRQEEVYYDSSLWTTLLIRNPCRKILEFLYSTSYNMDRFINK

SMILES	inhibition at 30 µM	IC50
O=C(O)C[C@@H]1CCCN(c2ccc(C(=O)NC3CCCCC3)c(NCCc3ccccc3)n2)C1 [compound 152, 2-[(3S)-1-[5-(cyclohexylcarbamoyl)-6-(phenethylamino)pyridin-2-yl]-3-piperidyl]acetic acid]	81%	–
CCSc1nc(N2CC[C@H](CC(=O)O)C2)ccc1C(=O)NC1C2CC3CC(C2)CC1C3 (stereo partly drawn) [Example 73, 2-[(3R)-1-[5-(2-adamantylcarbamoyl)-6-ethylsulfanyl-pyridin-2-yl]pyrrolidin-3-yl]acetic acid]	92%	–
CCCSc1nc(N2CCC[C@@H](CC(=O)O)C2)ccc1C(=O)NC1CCOCC1 [Example 173]	92%	–
CCCSc1nc(N2CCC(C)(C(=O)O)CC2)ccc1C(=O)N[C@H]1C2CC3CC1C[C@@](O)(C3)C2 [Example 88, 1-[5-[[(2r,5s)-5-hydroxy-2-adamantyl]carbamoyl]-6-propylsulfanyl-pyridin-2-yl]-4-methyl-piperidine-4-carboxylic acid]	89%	–
O=C(O)C[C@@H]1CCCN(c2ccc(C(=O)NC3CCCCC3)c(N3CCNCC3)n2)C1 [{(3S)-1-[5-(cyclohexylcarbamoyl)-6-(piperazin-1-yl)pyridin-2-yl]piperidin-3-yl}acetic acid]	–	> 30 µM
CCCSc1nc(N2CCOC(C(=O)O)C2)ccc1C(=O)NC1CCCCC1 (centres unmarked) [Example 51, 4-[5-(cyclohexylcarbamoyl)-6-propylsulfanyl-pyridin-2-yl]morpholine-2-carboxylic acid]	90%	–
CCCSc1nc(N2CCCC(OC(C)C(=O)O)C2)ccc1C(=O)NC1CCCCC1 (centres unmarked) [Example 44]	85%	–
O=C(O)C[C@@H]1CCCN(c2ccc(C(=O)N3CCC(c4cccnc4)C3)c(SC3CCCC3)n2)C1 (stereo partly drawn) [Example 127, 2-[(3S)-1-[6-cyclopentylsulfanyl-5-(3-pyridin-3-ylpyrrolidine-1-carbonyl)pyridin-2-yl]-3-piperidyl]acetic acid]	96%	–
O=C(O)C[C@@H]1CCCN(c2ccc(C(=O)NC3CCCCC3)c(SCCc3cccnc3)n2)C1 [compound 131, 2-[(3S)-1-[5-(cyclohexyl-carbamoyl)-6-(2-pyridin-3-ylethylsulfanyl)pyridin-2-yl]-3-piperidyl] acetic acid]	91%	–
CCCSc1nc(N2CCC[C@@H](CC(=O)O)C2)ccc1C(=O)N(C)C1CCCCC1 [compound 169, 2-[(3S)-1-[5-(cyclohexyl-methyl-carbamoyl)-6-propylsulfanyl-pyridin-2-yl]-3-piperidyl]acetic acid]	100%	–
CCCSc1nc(N2CCC[C@H](CC(=O)O)C2)c(F)cc1C(=O)NC1CCCCC1 [Example 187, (R)-2-(1-(5-(Cyclohexylcarbamoyl)-3-fluoro-6-(propylthio)pyridin-2-yl)piperidin-3-yl)acetic acid]	90%	–
CCCSc1nc(N2CCC(C3(C(=O)O)CC3)CC2)ccc1C(=O)NC1CCCCC1 [Example 50, 1-[1-[5-(cyclohexylcarbamoyl)-6-propylsulfanyl-pyridin-2-yl]-4-piperidyl]cyclopropane-1-carboxylic acid]	81%	–
CCCOc1nc(N2CCC[C@@H](CC(=O)O)C2)ccc1C(=O)N[C@H]1C2CC3CC1C[C@@](O)(C3)C2 [Example 109, 2-[(3S)-1-[5-[[(2r,5s)-5-hydroxy-2-adamantyl]carbamoyl]-6-propoxy-pyridin-2-yl]-3-piperidyl]acetic acid]	88%	–
O=C(O)C[C@@H]1CCN(c2ccc(C(=O)NC3C4CC5CC3CC(O)(C5)C4)c(SC3CCCC3)n2)C1 (stereo partly drawn) [Example 93, 2-[(3S)-1-[6-cyclopentylsulfanyl-5-[((2r,5s)-5-hydroxy-2-adamantyl)carbamoyl]pyridin-2-yl]pyrrolidin-3-yl]acetic acid]	85%	–
O=C(O)C[C@@H]1CCCN(c2ccc(C(=O)N[C@H]3C4CC5CC3C[C@](OC(F)F)(C5)C4)c(SC3CCCC3)n2)C1 [Example 178, 2-[(3S)-1-[6-Cyclopentylsulfanyl-5-[[(2r,5s)-5-(difluoromethoxy)-2-adamantyl]carbamoyl]pyridin-2-yl]-3-piperidyl]acetic acid]	93%	–
O=C(O)CO[C@@H]1CCN(c2ccc(C(=O)NC3C4CC5CC(C4)CC3C5)c(SC3CCCC3)n2)C1 (stereo partly drawn) [Example 70, 2-[(3R)-1-[5-(2-adamantylcarbamoyl)-6-cyclopentylsulfanyl-pyridin-2-yl]pyrrolidin-3-yl]oxyacetic acid]	95%	–
O=C(O)C[C@@H]1CCCN(c2ccc(C(=O)NC3CCCCC3)c(OCCCc3ccccc3)n2)C1 [compound 137, 2-[(3S)-1-[5-(cyclohexyl-carbamoyl)-6-(3-phenylpropoxy)pyridin-2-yl]-3-piperidyl] acetic acid]	99%	–
CCCNc1nc(N2CCC[C@@H](CC(=O)O)C2)ccc1C(=O)N(C)C1CCCCC1 [compound 157, 2-[(3S)-1-[5-(cyclohexyl-methyl-carbamoyl)-6-propylamino-pyridin-2-yl]-3-piperidyl]acetic acid]	91%	–
O=C(O)C[C@@H]1CCCN(c2ccc(C(=O)NC3CCCCC3)c(SC3CCCC3)n2)C1 [Example 52, 2-[(3S)-1-[5-(cyclohexylcarbamoyl)-6-cyclopentylsulfanyl-pyridin-2-yl]-3-piperidyl]acetic acid]	92%	–
CCCSc1nc(N2CCCC(C(=O)O)CC2)ccc1C(=O)NC1CCCCC1 (centres unmarked) [Example 31, 1-[5-(cyclohexylcarbamoyl)-6-propylsulfanyl-pyridin-2-yl]azepane-4-carboxylic acid]	94%	–
CCCSc1nc(N2CC[C@H](C(=O)O)C2)ccc1C(=O)NC1C2CC3CC(C2)CC1C3 (stereo partly drawn) [Example 67, (3S)-1-[5-(2-adamantylcarbamoyl)-6-propylsulfanyl-pyridin-2-yl]pyrrolidine-3-carboxylic acid]	88%	–
CN(CCc1ccccc1)c1nc(N2CCC[C@@H](CC(=O)O)C2)ccc1C(=O)NC1CCCCC1 [compound 153, 2-[(3S)-1-[5-(cyclohexylcarbamoyl)-6-(methyl-phenethyl-amino)pyridin-2-yl]-3-piperidyl]acetic acid]	92%	–
CCCSc1nc(Oc2ccc(C(C)C(=O)O)cc2)ccc1C(=O)NC1CCCCC1 (centres unmarked) [Example 21, 2-[4-[5-(cyclohexylcarbamoyl)-6-propylsulfanyl-pyridin-2-yl]oxyphenyl]propanoic acid]	88%	–
O=C(O)C[C@@H]1CCCN(c2ccc(C(=O)NC3CCCCC3)c(N3CCCCC3)n2)C1 [compound 141, 2-[(3S)-1-[5-(cyclohexylcarbamoyl)-6-(1-piperidyl)pyridin-2-yl]-3-piperidyl]acetic acid]	96%	–
CCCSc1nc(Sc2ccc(C(=O)O)cc2)ccc1C(=O)NC1CCCCC1 [Example 15, 4-[5-(cyclohexylcarbamoyl)-6-propylsulfanyl-pyridin-2-yl]sulfanylbenzoic acid]	73%	–
O=C(O)C[C@@H]1CCCN(c2ccc(C(=O)NC3CCCCC3)c(N3CCN(C(=O)c4ccc(F)cc4)CC3)n2)C1 [compound 146, 2-[(3S)-1-[5-(cyclohexyl-carbamoyl)-6-[4-(4-fluorobenzoyl)piperazin-1-yl]pyridin-2-yl]-3-piperidyl]acetic acid]	58%	–
